{"source": "patent US9266904B2", "about": "“6-bridged heteroaryldihydropyrimidines for the treatment and prophylaxis of hepatitis B virus infection” (priority 2013, dated 2016)", "key": {"[1]": {"system": "HBV replication in HepG2.2.15 cells", "test": "Anti-HBV activity in vitro in HepG2.2.15 cells (extracellular HBV DNA by qPCR)", "assay_type": "cell-based", "details": "Hepatitis B virus, HepG2.2.15, Anti-HBV activity in HepG2.2.15 cells; read-out: EC50", "procedure,_shortened": "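EC50 is derived from qPCR of extracellular viral DNA in culture supernatant after 5-day compound exposure. Cells (HepG2.2.15, stably carrying the HBV genome) were plated and incubated overnight at 37 °C before half-log dilution series were added at 0.5% final DMSO.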"}, "[2]": {"test": "Cytotoxicity (CCK-8 cell viability) and selectivity index", "assay_type": "cell-based, human", "details": "human, HepDE19 cells; cytotoxicity, concentration resulting in death of 50% of host cells", "procedure,_shortened": "(§1)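 HepDE19 cells (5×10^3/well) were treated with compounds as for the EC50 runs and, after 5 days, given CCK-8 for 2 h at 37° C. Absorbance was read at OD450 and OD630, and CC50 was taken as the concentration killing 50% of host cells.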"}, "HepDE19 cells": {"system": "HepDE19 cells", "test": "Cytotoxicity (CCK-8 cell viability) and selectivity index", "assay_type": "cell-based, human", "details": "CC50 value/EC50 value", "procedure,_shortened": "as §1"}, "[3]": {"test": "Human microsomal clearance assay", "assay_type": "in vitro ADME", "details": "human, 1 μM, pH 7.4", "procedure,_shortened": "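Liver microsomes (0.5 mg/mL protein) were incubated with 1 μM compound at 37 °C, pH 7.4 phosphate, with an NADPH-regenerating system. Samples at 0-30 min were quenched and measured by LC-MS/MS for parent loss. No-NADPH controls were included.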"}, "[4]": {"test": "Lyophilisation solubility assay (Lysa)", "assay_type": "physicochemical", "details": "pH 6.5, aqueous buffer, thermodynamic from solid", "procedure,_shortened": "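DMSO was evaporated from 10 mM stocks, and residues were taken up in 0.05 M phosphate buffer pH 6.5, stirred 1 h, shaken 2 h and left overnight. Filtrates were quantified by UV or HPLC-UV against a four-point calibration, in duplicate. Values are in μg/ml, with a lower-bound value when >80% dissolved.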"}}, "data": [{"smiles": "CCOC(=O)C1=C(CN2C3COCC2C(C(=O)O)C3)NC(c2nccs2)=N[C@H]1c1ccc(F)cc1Br", "note": "(stereo partly drawn) [Example 52, 8-[[(4R)-4-(2-bromo-4-fluoro-phenyl)-5-ethoxycarbonyl-2-thiazol-2-yl-1,4-dihydropyrimidin-6-yl]methyl]-3-oxa-8-azabicyclo[3.2.1]octane-6-carboxylic acid]", "values": [{"measurement": "EC50", "setting": "[1]", "value": 17.9, "unit": "nM"}, {"measurement": "CC50 at 5 days", "setting": "[2]", "value": "> 100000", "unit": "nM"}, {"measurement": "Selectivity index (CC50/EC50)", "setting": "HepDE19 cells", "value": ">5587"}, {"measurement": "CLh", "setting": "[3]", "value": 2.7, "unit": "mL/min/kg"}, {"measurement": "solubility thermodynamic", "setting": "[4]", "value": "> 630", "unit": "µg/mL"}]}, {"smiles": "COC(=O)C1=C(CN2C3COCC2CN(C(N)=O)C3)NC(c2nccs2)=N[C@H]1c1ccc(F)cc1Br", "note": "[Example 54, Methyl (4R)-4-(2-bromo-4-fluoro-phenyl)-6-[(7-carbamoyl-3-oxa-7,9-diazabicyclo[3.3.1]nonan-9-yl)methyl]-2-thiazol-2-yl-1,4-dihydropyrimidine-5-carboxylate]", "values": [{"measurement": "EC50", "setting": "[1]", "value": 8.2, "unit": "nM"}, {"measurement": "CC50 at 5 days", "setting": "[2]", "value": 60000, "unit": "nM"}, {"measurement": "Selectivity index (CC50/EC50)", "setting": "HepDE19 cells", "value": 7300}, {"measurement": "CLh", "setting": "[3]", "value": 6.5, "unit": "mL/min/kg"}, {"measurement": "solubility thermodynamic", "setting": "[4]", "value": 119, "unit": "µg/mL"}]}, {"smiles": "COC(=O)C1=C(CN2[C@@H]3COC[C@H]2C[C@H](CC(=O)O)C3)NC(c2nccs2)=N[C@H]1c1ccc(F)cc1Br", "note": "[Example 58, 2-[(1S,5R)-9-[[(4R)-4-(2-bromo-4-fluoro-phenyl)-5-methoxycarbonyl-2-thiazol-2-yl-1,4-dihydropyrimidin-6-yl]methyl]-3-oxa-9-azabicyclo[3.3.1]nonan-7-yl]acetic acid]", "values": [{"measurement": "EC50", "setting": "[1]", "value": 11.4, "unit": "nM"}, {"measurement": "CC50 at 5 days", "setting": "[2]", "value": "> 100000", "unit": "nM"}, {"measurement": "Selectivity index (CC50/EC50)", "setting": "HepDE19 cells", "value": ">8772"}, {"measurement": "CLh", "setting": "[3]", "value": 2.1, "unit": "mL/min/kg"}, {"measurement": "solubility thermodynamic", "setting": "[4]", "value": "> 701", "unit": "µg/mL"}]}, {"smiles": "COC(=O)C1=C(CN2[C@@H]3COC[C@H]2C[C@H](CC(=O)O)C3)NC(c2nccs2)=N[C@H]1c1cccc(F)c1Cl", "note": "[Example 59, Exo-2-[(1S,5R)-9-[[(4R)-4-(2-chloro-3-fluoro-phenyl)-5-methoxycarbonyl-2-thiazol-2-yl-1,4-dihydropyrimidin-6-yl]methyl]-3-oxa-9-azabicyclo[3.3.1]nonan-7-yl]acetic acid]", "values": [{"measurement": "EC50", "setting": "[1]", "value": 15.6, "unit": "nM"}, {"measurement": "CC50 at 5 days", "setting": "[2]", "value": "> 100000", "unit": "nM"}, {"measurement": "Selectivity index (CC50/EC50)", "setting": "HepDE19 cells", "value": ">6410"}, {"measurement": "CLh", "setting": "[3]", "value": 2.1, "unit": "mL/min/kg"}, {"measurement": "solubility thermodynamic", "setting": "[4]", "value": "> 732", "unit": "µg/mL"}]}, {"smiles": "COC(=O)C1=C(CN2[C@H]3COC[C@@H]2[C@H](CC(=O)O)C3)NC(c2nccs2)=N[C@H]1c1ccc(F)cc1Br", "note": "[Example 64, 2-[(1R,5S,6S)-8-[[(4R)-4-(2-bromo-4-fluoro-phenyl)-5-methoxycarbonyl-2-thiazol-2-yl-1,4-dihydropyrimidin-6-yl]methyl]-3-oxa-8-azabicyclo[3.2.1]octan-6-yl]acetic acid]", "values": [{"measurement": "EC50", "setting": "[1]", "value": 16.6, "unit": "nM"}, {"measurement": "CC50 at 5 days", "setting": "[2]", "value": "> 100000", "unit": "nM"}, {"measurement": "Selectivity index (CC50/EC50)", "setting": "HepDE19 cells", "value": ">6024"}, {"measurement": "CLh", "setting": "[3]", "value": 2.6, "unit": "mL/min/kg"}, {"measurement": "solubility thermodynamic", "setting": "[4]", "value": 660, "unit": "µg/mL"}]}, {"smiles": "CCOC(=O)C1=C(CN2[C@@H]3COC[C@H]2C[C@@H](CC(=O)O)C3)NC(c2nccs2)=N[C@H]1c1cccc(F)c1Cl", "note": "[Example 65, Endo-2-[(1S,5R)-9-[[(4R)-4-(2-chloro-3-fluoro-phenyl)-5-ethoxycarbonyl-2-thiazol-2-yl-1,4-dihydropyrimidin-6-yl]methyl]-3-oxa-9-azabicyclo[3.3.1]nonan-7-yl]acetic acid]", "values": [{"measurement": "EC50", "setting": "[1]", "value": 11.8, "unit": "nM"}, {"measurement": "CC50 at 5 days", "setting": "[2]", "value": 71000, "unit": "nM"}, {"measurement": "Selectivity index (CC50/EC50)", "setting": "HepDE19 cells", "value": 5980}, {"measurement": "CLh", "setting": "[3]", "value": 2.8, "unit": "mL/min/kg"}, {"measurement": "solubility thermodynamic", "setting": "[4]", "value": 375, "unit": "µg/mL"}]}, {"smiles": "CCOC(=O)C1=C(CN2[C@@H]3COC[C@H]2C[C@H](CC(=O)O)C3)NC(c2nccs2)=N[C@H]1c1ccc(F)cc1Br", "note": "[Example 67, Exo-2-[(1S,5R)-9-[[(4R)-4-(2-bromo-4-fluoro-phenyl)-5-ethoxycarbonyl-2-thiazol-2-yl-1,4-dihydropyrimidin-6-yl]methyl]-3-oxa-9-azabicyclo[3.3.1]nonan-7-yl]acetic acid]", "values": [{"measurement": "EC50", "setting": "[1]", "value": 4, "unit": "nM"}, {"measurement": "CC50 at 5 days", "setting": "[2]", "value": "> 100000", "unit": "nM"}, {"measurement": "Selectivity index (CC50/EC50)", "setting": "HepDE19 cells", "value": ">25000"}, {"measurement": "CLh", "setting": "[3]", "value": 2.9, "unit": "mL/min/kg"}, {"measurement": "solubility thermodynamic", "setting": "[4]", "value": 319, "unit": "µg/mL"}]}, {"smiles": "CCOC(=O)C1=C(CN2[C@@H]3COC[C@H]2C[C@H](CC(=O)O)C3)NC(c2nccs2)=N[C@H]1c1ccccc1Cl", "note": "[Example 72, Exo-2-[(1S,5R)-9-[[(4R)-4-(2-chlorophenyl)-5-ethoxycarbonyl-2-thiazol-2-yl-1,4-dihydropyrimidin-6-yl]methyl]-3-oxa-9-azabicyclo[3.3.1]nonan-7-yl]acetic acid]", "values": [{"measurement": "EC50", "setting": "[1]", "value": 13.2, "unit": "nM"}, {"measurement": "CC50 at 5 days", "setting": "[2]", "value": "> 100000", "unit": "nM"}, {"measurement": "Selectivity index (CC50/EC50)", "setting": "HepDE19 cells", "value": ">7576"}, {"measurement": "CLh", "setting": "[3]", "value": 2.8, "unit": "mL/min/kg"}, {"measurement": "solubility thermodynamic", "setting": "[4]", "value": 640, "unit": "µg/mL"}]}, {"smiles": "COC(=O)C1=C(CN2[C@@H]3COC[C@H]2C[C@H](CC(=O)O)C3)NC(c2nccs2)=N[C@H]1c1cccc(F)c1Br", "note": "[Example 74, Exo-2-[(1S,5R)-9-[[(4R)-4-(2-bromo-3-fluoro-phenyl)-5-methoxycarbonyl-2-thiazol-2-yl-1,4-dihydropyrimidin-6-yl]methyl]-3-oxa-9-azabicyclo[3.3.1]nonan-7-yl]acetic acid]", "values": [{"measurement": "EC50", "setting": "[1]", "value": 10.9, "unit": "nM"}, {"measurement": "CC50 at 5 days", "setting": "[2]", "value": "> 100000", "unit": "nM"}, {"measurement": "Selectivity index (CC50/EC50)", "setting": "HepDE19 cells", "value": ">9174"}, {"measurement": "CLh", "setting": "[3]", "value": 0.5, "unit": "mL/min/kg"}, {"measurement": "solubility thermodynamic", "setting": "[4]", "value": "> 621", "unit": "µg/mL"}]}, {"smiles": "CCOC(=O)C1=C(CN2[C@@H]3COC[C@H]2C[C@H](CC(=O)O)C3)NC(c2nccs2)=N[C@H]1c1ccccc1Br", "note": "[Example 77, Exo-2-[(1S,5R)-9-[[(4R)-4-(2-bromophenyl)-5-ethoxycarbonyl-2-thiazol-2-yl-1,4-dihydropyrimidin-6-yl]methyl]-3-oxa-9-azabicyclo[3.3.1]nonan-7-yl]acetic acid]", "values": [{"measurement": "EC50", "setting": "[1]", "value": 14, "unit": "nM"}, {"measurement": "CC50 at 5 days", "setting": "[2]", "value": "> 100000", "unit": "nM"}, {"measurement": "Selectivity index (CC50/EC50)", "setting": "HepDE19 cells", "value": ">7143"}, {"measurement": "CLh", "setting": "[3]", "value": 1.3, "unit": "mL/min/kg"}, {"measurement": "solubility thermodynamic", "setting": "[4]", "value": 491, "unit": "µg/mL"}]}, {"smiles": "CCOC(=O)C1=C(CN2[C@@H]3COC[C@H]2C[C@H](CC(=O)O)C3)NC(c2nccs2)=N[C@H]1c1ccc(F)c(F)c1C", "note": "[Example 78, Exo-2-[(1S,5R)-9-[[(4S)-4-(3,4-difluoro-2-methyl-phenyl)-5-ethoxycarbonyl-2-thiazol-2-yl-1,4-dihydropyrimidin-6-yl]methyl]-3-oxa-9-azabicyclo[3.3.1]nonan-7-yl]acetic acid]", "values": [{"measurement": "EC50", "setting": "[1]", "value": 2, "unit": "nM"}, {"measurement": "CC50 at 5 days", "setting": "[2]", "value": 73000, "unit": "nM"}, {"measurement": "Selectivity index (CC50/EC50)", "setting": "HepDE19 cells", "value": 36515}, {"measurement": "CLh", "setting": "[3]", "value": 1.9, "unit": "mL/min/kg"}, {"measurement": "solubility thermodynamic", "setting": "[4]", "value": 111, "unit": "µg/mL"}]}, {"smiles": "COC(=O)C1=C(CN2[C@@H]3CC[C@@]2(C(=O)O)COC3)NC(c2nccs2)=N[C@H]1c1ccc(F)cc1Cl", "note": "[Example 82, (1R,5S)-8-[[(4R)-4-(2-chloro-4-fluoro-phenyl)-5-methoxycarbonyl-2-thiazol-2-yl-1,4-dihydropyrimidin-6-yl]methyl]-3-oxa-8-azabicyclo[3.2.1]octane-5-carboxylic acid]", "values": [{"measurement": "EC50", "setting": "[1]", "value": 13.1, "unit": "nM"}, {"measurement": "CC50 at 5 days", "setting": "[2]", "value": "> 100000", "unit": "nM"}, {"measurement": "Selectivity index (CC50/EC50)", "setting": "HepDE19 cells", "value": ">7634"}, {"measurement": "CLh", "setting": "[3]", "value": 0, "unit": "mL/min/kg"}, {"measurement": "solubility thermodynamic", "setting": "[4]", "value": "> 628", "unit": "µg/mL"}]}, {"smiles": "CCOC(=O)C1=C(CN2C3CCC2(C(=O)O)COC3)NC(c2nccs2)=N[C@H]1c1cccc(F)c1Cl", "note": "(stereo partly drawn) [Example 83, 8-[[(4R)-4-(2-chloro-3-fluoro-phenyl)-5-ethoxycarbonyl-2-thiazol-2-yl-1,4-dihydropyrimidin-6-yl]methyl]-3-oxa-8-azabicyclo[3.2.1]octane-5-carboxylic acid]", "values": [{"measurement": "EC50", "setting": "[1]", "value": 8.6, "unit": "nM"}, {"measurement": "CC50 at 5 days", "setting": "[2]", "value": 65000, "unit": "nM"}, {"measurement": "Selectivity index (CC50/EC50)", "setting": "HepDE19 cells", "value": 7558}, {"measurement": "CLh", "setting": "[3]", "value": 1.6, "unit": "mL/min/kg"}, {"measurement": "solubility thermodynamic", "setting": "[4]", "value": 564, "unit": "µg/mL"}]}]}
